This is an account of results in EP2951180B1, “2,6,7,8 SUBSTITUTED PURINES AS HDM2 INHIBITORS” (Merck Sharp & Dohme Corp., priority 2013, dated 2014).

For one experiment, the target named is T1, HDM2 (Homo sapiens, UniProt Q00987).
T1 construct: Thioredoxin (N); made in house; host or cells: E. coli strain BL21(DE3)Rosetta
T1 sequence (Q00987 17-125): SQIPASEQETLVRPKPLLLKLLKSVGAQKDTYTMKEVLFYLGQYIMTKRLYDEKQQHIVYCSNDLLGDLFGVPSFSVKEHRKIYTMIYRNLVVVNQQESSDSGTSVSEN
The experiment is described as follows: HDM2 FRET assay (inhibition of binding of FITC labeled p53-pocket peptide to HDM2). The settings on record: Table 22; read-out: FRET IC50. The method, boiled down: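 Final: 0.5 nM His-HDM2, 3 nM FITC peptide, 0.25 nM Tb anti-His Ab; PBS, 0.01% BSA, 0.01% Tween-20; 0.1% DMSO.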
Usually IC50 stands for the concentration that gives 50% inhibition. Turning to `C[C@@H](Nc1nc(-c2noc(=O)[nH]2)nc2nc(C(O)C3CCC3)n(C[C@H]3CC[C@H](C)CC3)c12)C1CCC1` (stereo partly drawn) [Example 22.57, 3-(6-{[(1R)-1-cyclobutylethyl]amino}-8-[cyclobutyl(hydroxy)methyl]-7-[(trans-4-methylcyclohexyl)methyl] -7H-purin-2-yl)-1,2,4-oxadiazol-5(4H)-one], the IC50 amounted to 9.75 nM.
For the compound `C[C@@H](Nc1nc(-c2noc(=O)[nH]2)nc2nc(C(C)(O)c3nccs3)n(C[C@H]3CC[C@H](C)CC3)c12)C1CCC1` (stereo partly drawn) [Example 22.58, 3-(6-{[(1R)-1-cyclobutylethyl]amino}-8-[1-hydroxy-1-(1,3-thiazol-2-yl)ethyl]-7-[(trans-4-methylcyclohexyl)methyl] -7H-purin-2-yl)-1,2,4-oxadiazol-5(4H)-one], the 50% inhibitory concentration (IC50) is 7.21 nM.
For the compound `C[C@@H](Nc1nc(-c2noc(=O)[nH]2)nc2nc(C3(c4nccs4)CC3)n(C[C@H]3CC[C@H](C)CC3)c12)C1CCC1` [Example 22.59, 3-(6-{[(1R)-1-cyclobutylethyl]amino}-7-[(trans-4-methylcyclohexyl)methyl] -8-[1-(1,3-thiazol-2-yl)cyclopropyl]-7H-purin-2-yl)-1,2,4-oxadiazol-5(4H)-one], the IC50 turned out to be 2.3 nM.
As to `C[C@@H](Nc1nc(-c2noc(=O)[nH]2)nc2nc(C3(c4cnn(C)c4)CC3)n(C[C@H]3CC[C@H](C)CC3)c12)C1CCC1` [Example 22.63, 3-(6-{[(1R)-1-cyclobutylethyl]amino}-7-[(trans-4-methylcyclohexyl)methyl] -8-[1-(1-methyl-1H-pyrazol-4-yl)cyclopropyl]-7H-purin-2-yl)-1,2,4-oxadiazol-5(2H)-one], the IC50 amounted to 7.93 nM.
Consider `C[C@@H](Nc1nc(-c2noc(=O)[nH]2)nc2nc(C3(O)CCOCC3)n(C[C@H]3CC[C@H](C)CC3)c12)C1CCC1` [Example 22.64, 3-(6-{[(1R)-1-cyclobutylethyl]amino}-8-(4-hydroxytetrahydro-2H-pyran-4-yl)-7-[(trans-4-methylcyclohexyl)methyl] -7H-purin-2-yl)-1,2,4-oxadiazol-5(4H)-one], for which the IC50 turned out to be 49 nM.
Take `C[C@@H](Nc1nc(-c2noc(=O)[nH]2)nc2nc(C(F)c3ccccc3)n(C[C@H]3CC[C@H](C)CC3)c12)C1CCC1` (stereo partly drawn) [Example 22.66, 3-(6-{[(1R)-1-cyclobutylethyl]amino}-8-[fluoro(phenyl)methyl]-7-[(trans-4-methylcyclohexyl)methyl] -7H-purin-2-yl)-1,2,4-oxadiazol-5(4H)-one]: the IC50 came out at 7.12 nM.
For `C[C@@H](Nc1nc(-c2noc(=O)[nH]2)nc2nc(C3(O)CCC3)n(C[C@H]3CC[C@H](C)CC3)c12)C1CCC1` [Example 22.67, 3-(6-{[(1R)-1-cyclobutylethyl]amino}-8-(1-hydroxycyclobutyl)-7-[(trans-4-methylcyclohexyl)methyl] -7H-purin-2-yl)-1,2,4-oxadiazol-5(2H)-one], the IC50 was determined as 19.3 nM.
For `C[C@@H](Nc1nc(-c2noc(=O)[nH]2)nc2nc(C3(F)CCC3)n(C[C@H]3CC[C@H](C)CC3)c12)C1CCC1` [Example 22.68, 3-(6-{[(1R)-1-cyclobutylethyl]amino}-8-(1-fluorocyclobutyl)-7-[(trans-4-methylcyclohexyl)methyl] -7H-purin-2-yl)-1,2,4-oxadiazol-5(4H)-one], the IC50 was found to be 16.9 nM.
Turning to `COC1(c2nc3nc(-c4noc(=O)[nH]4)nc(N[C@H](C)C4CCC4)c3n2C[C@H]2CC[C@H](C)CC2)CCC1` [Example 22.69, 3-(6-{[(1R)-1-cyclobutylethyl]amino}-8-(1-methoxycyclobutyl)-7-[(trans-4-methylcyclohexyl)methyl] -7H-purin-2-yl)-1,2,4-oxadiazol-5(4H)-one], the IC50 was determined as 4.54 nM.
On to `C[C@@H](Nc1nc(-c2noc(=O)[nH]2)nc2nc(C3CCC3)n(C[C@H]3CC[C@H](C)CC3)c12)C1CCC1` [Example 22.70, 3-(8-cyclobutyl-6-{[(1R)-1-cyclobutylethyl]amino}-7-[(trans-4-methylcyclohexyl)methyl]-7H-purin-2-yl)-1,2,4-oxadiazol-5(4H)-one], for which the 50% inhibitory concentration (IC50) was 15.1 nM.
On to `CC(c1ccccn1)c1nc2nc(-c3noc(=O)[nH]3)nc(N[C@H](C)C3CCC3)c2n1C[C@H]1CC[C@H](C)CC1` (stereo partly drawn) [Example 22.71, 3-[6-{[(1R)-1-cyclobutylethyl]amino}-7-[(trans-4-methylcyclohexyl)methyl] -8-(1-pyridin-2-ylethyl)-7H-purin-2-yl]-1,2,4-oxadiazol-5(4H)-one], for which the 50% inhibitory concentration (IC50) is 6.49 nM.
As to `Cc1nc(C2(c3nc4nc(-c5noc(=O)[nH]5)nc(N[C@H](C)C5CCC5)c4n3C[C@H]3CC[C@H](C)CC3)CC2)c(C)s1` [Example 22.72, 3-(6-{[(1R)-1-cyclobutylethyl]amino}-8-[1-(2,5-dimethyl-1,3-thiazol-4-yl)cyclopropyl]-7-[(trans-4-methylcyclohexyl)methyl] -7H-purin-2-yl)-1,2,4-oxadiazol-5(4H)-one], the IC50 was 3.04 nM.
On the same count and under the same terms, in the case of `COC(c1cscn1)c1nc2nc(-c3noc(=O)[nH]3)nc(N[C@H](C)C3CCC3)c2n1C[C@H]1CC[C@H](C)CC1` (stereo partly drawn) [Example 22.74, 3-(6-{[(1R)-1-cyclobutylethyl]amino}-8-[methoxy(1,3-thiazol-4-yl)methyl]-7-[(trans-4-methylcyclohexyl)methyl] -7H-purin-2-yl)-1,2,4-oxadiazol-5(4H)-one] it was 2.63 nM; in that of `CCOC1(c2nc3nc(-c4noc(=O)[nH]4)nc(N[C@H](C)C4CCC4)c3n2C[C@H]2CC[C@H](C)CC2)CCC1` [Example 22.76, 3-(6-{[(1R)-1-cyclobutylethyl]amino}-8-(1-ethoxycyclobutyl)-7-[(trans-4-methylcyclohexyl)methyl] -7H-purin-2-yl)-1,2,4-oxadiazol-5(4H)-one], 4.22 nM.
As to `C[C@@H](Nc1nc(-c2noc(=O)[nH]2)nc2nc(C(F)(F)c3ccccc3)n(C[C@H]3CC[C@H](C)CC3)c12)C1CCC1` [Example 22.79, 3-(6-{[(1R)-1-cyclobutylethyl]amino}-8-[difluoro(phenyl)methyl]-7-[(trans-4-methylcyclohexyl)methyl]-7H-purin-2-yl)-1,2,4-oxadiazol-5(4H)-one], the half-inhibitory concentration (IC50) is 3.36 nM.
Same read-out and setting: the same measure for `C[C@@H](Nc1nc(-c2noc(=O)[nH]2)nc2nc(C3OCc4ccccc43)n(C[C@H]3CC[C@H](C)CC3)c12)C1CCC1` (stereo partly drawn) [Example 22.80, 3-(6-{[(1R)-1-cyclobutylethyl]amino}-8-(1,3-dihydro-2-benzofuran-1-yl)-7-[(trans-4-methylcyclohexyl)methyl]-7H-purin-2-yl)-1,2,4-oxadiazol-5(4H)-one]: 2.47 nM; for `C[C@@H](Nc1nc(-c2noc(=O)[nH]2)nc2nc(C3(c4ccccc4)CCO3)n(C[C@H]3CC[C@H](C)CC3)c12)C1CCC1` (stereo partly drawn) [Example 22.81, 3-[6-{[(1R)-1-cyclobutylethyl]amino}-7-[(trans-4-methylcyclohexyl)methyl]-8-(2-phenyloxetan-2-yl)-7H-purin-2-yl]-1,2,4-oxadiazol-5(4H)-one]: 11 nM; for `CCC(CO)c1nc2nc(-c3noc(=O)[nH]3)nc(N[C@H](C)C3CCC3)c2n1C[C@H]1CC[C@H](C)CC1` (stereo partly drawn) [Example 22.82, 3-(6-{[(1R)-1-cyclobutylethyl]amino}-8-[1-(hydroxymethyl)propyl]-7-[(trans-4-methylcyclohexyl)methyl]-7H-purin-2-yl)-1,2,4-oxadiazol-5(4H)-one]: 10.1 nM.

Staying with this experiment, now noted: Table 23; read-out: FRET IC50.
With `C[C@H]1CC[C@H](Cn2c(C(=O)C3CCOCC3)nc3nc(-c4noc(=O)[nH]4)nc(-c4cccc(Cl)c4)c32)CC1` [Example 23.3, 3-[6-(3-chlorophenyl)-7-[(trans-4-methylcyclohexyl)methyl]-8-(tetrahydro-2H-pyran-4-ylcarbonyl)-7H-purin-2-yl]-1,2,4-oxadiazol-5(4H)-one], the half-maximal inhibitory concentration (IC50) turned out to be 21.4 nM.
With `C[C@H]1CC[C@H](Cn2c(C(=O)C3CCCCC3)nc3nc(-c4noc(=O)[nH]4)nc(-c4cccc(Cl)c4)c32)CC1` [Example 23.6, 3-{6-(3-chlorophenyl)-8-(cyclohexylcarbonyl)-7-[(trans-4-methylcyclohexyl)methyl] -7H-purin-2-yl}-1,2,4-oxadiazol-5(4H)-one], the IC50 amounted to 13.9 nM.
The same measure, in the same setting: the same measure for `C[C@H]1CC[C@H](Cn2c(C(=O)C3CCOCC3)nc3nc(-c4n[nH]c(=O)o4)nc(-c4cccc(Cl)c4)c32)CC1` [Example 23.9, 5-[6-(3-chlorophenyl)-7-[(trans-4-methylcyclohexyl)methyl] -8-(tetrahydro-2H-pyran-4-ylcarbonyl)-7H-purin-2-yl]-1,3,4-oxadiazol-2(3H)-one]: 24.6 nM.
As for `C[C@H]1CC[C@H](Cn2c(C3(F)COC3)nc3nc(-c4noc(=O)[nH]4)nc(-c4cncc(Cl)c4)c32)CC1` [Example 23.28, 3-{6-(5-chloropyridin-3-yl)-8-(3-fluorooxetan-3-yl)-7-[(trans-4-methylcyclohexyl)methyl]-7H-purin-2-yl}-1,2,4-oxadiazol-5(4H)-one], the half-inhibitory concentration (IC50) is 62.8 nM.
Still for that read-out and setting: the same measure for `C[C@H]1CC[C@H](Cn2c(C3(F)CCC3)nc3nc(-c4n[nH]c(=O)o4)nc(-c4cncc(Cl)c4)c32)CC1` [Example 23.38, 5-{6-(5-chloropyridin-3-yl)-8-(1-fluorocyclobutyl)-7-[(trans-4-methylcyclohexyl)methyl] -7H-purin-2-yl}-1,3,4-oxadiazol-2(3H)-one]: 31.1 nM; for `C[C@H]1CC[C@H](Cn2c(C3(F)CCCCC3)nc3nc(-c4noc(=O)[nH]4)nc(-c4cncc(Cl)c4)c32)CC1` [Example 23.39, 3-{6-(5-chloropyridin-3-yl)-8-(1-fluorocyclohexyl)-7-[(trans-4-methylcyclohexyl)methyl] -7H-purin-2-yl}-1,2,4-oxadiazol-5(4H)-one]: 18.1 nM.
On the same count and under the same terms, the same measure for `C[C@H]1CC[C@H](Cn2c(C3(F)CCCC3)nc3nc(-c4n[nH]c(=O)o4)nc(-c4cncc(Cl)c4)c32)CC1` [Example 23.40, 5-{6-(5-chloropyridin-3-yl)-8-(1-fluorocyclopentyl)-7-[(trans-4-methylcyclohexyl)methyl] -7H-purin-2-yl}-1,3,4-oxadiazol-2(3H)-one]: 15 nM.
